Data from US20230024108A1, “ADENOSINE A2A RECEPTOR ANTAGONISTS” (Teon Therapeutics, Inc., priority 2019, published 2023).

Experiments:
[1] = target: T1, human A2A AdoR (Homo sapiens, UniProt P29274); assay: Adenosine receptor binding assay, A2A ([3H]-CGS-21680); settings: membranes of HEK-293 cells expressing human A2A AdoR; read-out: hA2A IC50
T1 construct: purchased PerkinElmer RBHA2AM400UA
Outline: (§1)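 Filtration binding on membranes: A2A in HEK-293 with 6 nM [3H]-CGS-21680, Tris pH 7.4, 2 h; A2B in HEK-293 with 8 nM [3H]-DPCPX, HEPES pH 7.0, 1 h; A1 in CHO-K1 with 1 nM [3H]-DPCPX, HEPES pH 7.4, 1 h; room temperature. 8-point dilutions; IC50 converted to Ki (Cheng–Prusoff).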

[2] = system: phospho-CREB (pCREB); assay: Human whole blood phospho-CREB (pCREB) assay / modulation of pCREB in human immune cells; format: cell-based; settings: agonist (NECA or CGS-21680)-stimulated human blood cells
Description: Fresh human blood samples are derived from healthy volunteers and processed in heparin tubes. 67.5 ul of whole blood is aliquoted to each well in a 96-well plate and incubated at 37° C. for 30 min. Testing compounds are diluted with DMSO to make 8-point 3-fold serial dilution and 3.5 ul (20×) is added to each well. Cells are incubated with the compounds at 37° C. for 30 min. NECA (5 uM) is then added to each well and cells are incubated for 30 min at 37° C. Following the stimulation, cells are transferred to a 96-well deep well plates and fixed with 1 ml/well of lyse/fix buffer (1×) (BD Biosciences #558049) with vigorous shake at 37° C. for 10 min. Cells are centrifuged at 600 g for 6 min and washed twice with PBS, followed by addition of 800 ul/well Perm buffer III (BD Biosciences #558050). Cells are then pelleted at 600 g for 6 min, washed with FACS buffer (PBS+0.2% BSA+1 mM EDTA) and stained for 40 min at room temperature in the dark with an antibody cocktail containing PE mouse anti-human CD3 (BD Biosciences #555333, 1 ul/well), FITC mouse anti-human CD4 (BD Biosciences #5555346, 1 ul/well), PerCP-Cy™5.5 mouse anti-human CD8 (BD Biosciences #565310, 1 ul/well) and phospho-CREB (Ser133) (87G3) Rabbit mAb (Alexa Fluor® 647 Conjugate, CST #14001, 0.5 ul/well). Cells are then washed twice with FACS buffer and acquired on a flow cytometer (Sony Cell Sorter SH800). Data were analyzed using FlowJo version 9. The level of CREB phosphorylation from unstimulated cells (Low control: LC) and NECA-stimulated cells (High control: HC) are determined as mean fluorescent intensity (MFI) in stimulated condition/mean fluorescent intensity in unstimulated condition. % Inhibition is calculated as (MFI of HC-MFI of assay well)/(MFI of HC-MFI of LC)×100%. Data are analyzed and IC50s calculated using GraphPad Prism 5 and the model “log(inhibitor) vs. response—Variable slope”.
The A2A receptor is known to mediate CREB phosphorylation.
Venous blood from healthy volunteers, all of whom signed an informed consent approved by the Ethics Committee (FOR—UIC-BV-050-01-01 ICF HBS HD Version 5.0), was obtained via ImmuneHealth (Centre Hospitalier Universitaire Tivoli, La Louviere,
15 Belgium). Peripheral blood cells were treated with A2AR agonists CGS-21680 or NECA (Sigma-Aldrich, Diegem, Belgium), and a serial dilution of compounds disclosed herein (all used stock solutions at 10 mM in DMSO). All dilutions were prepared in RPMI1640 medium (with UltraGlutamine; Lonza, Venders, Belgium), and cells were incubated with compounds in a 37° C. humidified tissue culture incubator with 5% CO2.
After stimulation, cells were fixed and permeabilized, followed by intracellular staining using mouse anti-human pCREB antibodies (Clone J151-21; BD Biosciences) at room temperature. Data were acquired using an LSRFortessa flow cytometer (BD Biosciences) and analyzed using FlowJo software (FlowJo, LLC, Ashland, Oregon).

[3] = target: T2, A1AdoR (Homo sapiens, UniProt P30542); assay: Adenosine receptor binding assay, A1 ([3H]-DPCPX); settings: ratio A1 vs A2A binding
T2 construct: purchased PerkinElmer ES-010-M400UA
T2 sequence (P30542 1-326): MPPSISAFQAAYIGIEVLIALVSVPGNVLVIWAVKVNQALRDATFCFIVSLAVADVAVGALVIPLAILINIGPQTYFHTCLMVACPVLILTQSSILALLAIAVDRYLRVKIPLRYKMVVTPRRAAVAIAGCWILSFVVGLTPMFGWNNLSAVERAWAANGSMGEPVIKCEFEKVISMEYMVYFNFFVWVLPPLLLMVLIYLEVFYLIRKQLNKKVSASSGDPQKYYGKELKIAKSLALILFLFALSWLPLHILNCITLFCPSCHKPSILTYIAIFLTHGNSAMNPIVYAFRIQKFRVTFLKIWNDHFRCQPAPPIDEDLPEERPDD
Outline: as §1

[4] = target: T3, human A2B AdoR (Homo sapiens, UniProt P29275); assay: Adenosine receptor binding assay, A2B ([3H]-DPCPX); settings: ratio A2B vs A2A binding
T3 construct: purchased PerkinElmer ES-013-M400UA
T3 sequence (P29275 1-332): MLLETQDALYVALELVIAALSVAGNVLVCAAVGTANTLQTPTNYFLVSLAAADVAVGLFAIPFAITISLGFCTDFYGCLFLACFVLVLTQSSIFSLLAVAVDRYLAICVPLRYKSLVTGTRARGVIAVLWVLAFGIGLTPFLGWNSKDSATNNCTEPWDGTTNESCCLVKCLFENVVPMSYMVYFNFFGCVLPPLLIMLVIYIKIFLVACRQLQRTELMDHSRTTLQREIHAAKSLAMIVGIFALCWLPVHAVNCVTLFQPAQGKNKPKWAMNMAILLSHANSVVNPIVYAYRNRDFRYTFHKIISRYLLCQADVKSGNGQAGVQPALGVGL
Description: Membranes prepared from CHO-K1 cells stably expressing Human AiAdoR (ES-010-M400UA), HEK-293 cells stably expressing human A2A AdoR (RBHA2AM400UA), HEK-293 cells stably expressing human A2B AdoR (ES-013-M400UA) and CHO-K1 cells stably expressing Human A3 AdoR (ES-012-M400UA) were purchased from PerkinElmer (Waltham, Mass., USA) and stored at −80° C. until use. Binding assays are performed using the radioligands. The final concentrations are as follows: [3H]-DPCPX (PerkinElmer, NET974001MC) at 1 nM for A1AdoR; [^3H]-CGS-21680 (PerkinElmer, NET1021250UC) at 6 nM for A2AAdoR, [3H]-DPCPX (PerkinElmer, NET974001MC) at 8 nM for A2BAdoR; [^3H]-HEMADO (ARC, Cat: ART1456) at 1 nM for A3AdoR. Testing compounds are diluted with DMSO to make 8-point 4-fold serial dilution. Nonspecific binding (Low control: LC) and total binding (High control: HC) are determined in the presence or absence of saturated cold ligand. Specific binding is calculated by subtracting nonspecific binding from total binding. All assays are performed in a final volume of 200 μl containing 1 μl of the test compound in DMSO, 100 μl of membrane preparation, and 99 μl of the radioligand in assay buffer (A1AdoR: 25 mM HEPES pH 7.4, 5 mM MgCl2, 1 mM CaCl2), 100 mM NaCl; A2AAdoR: 50 mM Tris HCl pH 7.4, 10 mM MgCl2, 1 mM EDTA; A2BAdoR: 50 mM HEPES pH 7.0, 5 mM MgCl2, 1 mM EDTA; A3AdoR: 25 HEPES pH 7.4, 10 mM MgCl2, 1 mM CaCl2), 0.5% BSA). The incubation is performed at room temperature with shaking at 300 rpm for 1 hour for A1AdoR, A2BAdoR and A3AdoR and 2 hours for A2AAdoR. After the incubation, the assay mixture is filtered through 96 GF/C filter plates (Perkin Elmer #6005174) using Perkin Elmer Filtermate Harvester, and then washed four times with ice-cold washing buffer (A1AdoR: 25 mM HEPES pH 7.4, 5 mM MgCl2, 1 mM CaCl2), 100 mM NaCl; A2AAdoR: 50 mM Tris HCl pH 7.4, 154 mM NaCl; A2BAdoR: 50 mM HEPES pH 6.5, 5 mM MgCl2, 1 mM EDTA, 0.2% BSA; A3AdoR: 50 mM Tris HCl pH 7.4). The filters are dried for 1 hour at 50° C. and [^3H] trapped on filter counted for radioactivity in Perkin Elmer Microscint 20 cocktail (#6013329) using Perkin Elmer MicroBeta2 Reader. The results are expressed as a percent inhibition of the control radioligand specific binding calculated using the following equation: % Inhibition=(1−(Assay well-Average_LC)/(Average_HC−Average_LC))×100%. Data are analyzed and IC50 is calculated using GraphPad Prism 5 and the model “log(inhibitor) vs. response—Variable slope”. The binding affinity of the compounds is determined by using the Cheng and Prusoff equation Ki=IC50/(1+[radioligand]/Kd).

T1 sequence (P29274 whole entry): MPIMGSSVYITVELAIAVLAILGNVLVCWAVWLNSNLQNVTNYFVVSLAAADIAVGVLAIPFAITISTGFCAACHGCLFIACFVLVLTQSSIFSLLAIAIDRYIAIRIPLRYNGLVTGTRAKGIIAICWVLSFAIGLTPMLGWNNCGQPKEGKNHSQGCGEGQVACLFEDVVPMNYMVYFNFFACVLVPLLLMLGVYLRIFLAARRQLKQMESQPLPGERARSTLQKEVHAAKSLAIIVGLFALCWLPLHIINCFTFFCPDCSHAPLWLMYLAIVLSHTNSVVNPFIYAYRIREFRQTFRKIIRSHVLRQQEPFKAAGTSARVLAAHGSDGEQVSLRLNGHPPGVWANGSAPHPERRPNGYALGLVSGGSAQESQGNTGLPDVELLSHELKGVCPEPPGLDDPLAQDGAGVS

| Compound | IC50 [1] [nM] | EC50 [2] [nM] | A1/A2A Selectivity [3] | A2B/A2A Selectivity [4] |
| --- | --- | --- | --- | --- |
| CNC(=O)c1cc2c(nc(N)n3nc(-c4ccccn4)nc23)n1CCN1CCN(c2cc(-c3ncco3)ccc2F)CC1 [5-amino-7-(2-(4-(2-fluoro-5-(oxazol-2-yl)phenyl)piperazin-1-yl)ethyl)-N-methyl-2-(pyridin-2-yl)-7H-pyrrolo[3,2-e][1,2,4]triazolo[1,5-c]pyrimidine-8-carboxamide] | ≤ 20 | > 100 | c (greater than 0 but less than or equal to 100) |  |
| CS(=O)(=O)NC(=O)COc1ccc(N2CCN(CCn3c(C#N)c(Cl)c4c3nc(N)n3nc(-c5ccccn5)nc43)CC2)cc1 | ≤ 20 | 20 to 100 | b (greater than 100 but less than or equal to 1000) |  |
| N#Cc1c(Cl)c2c(nc(N)n3nc(-c4ccccn4)nc23)n1CCN1CCN(c2cc(-c3ncco3)ccc2F)CC1 | ≤ 20 | 20 to 100 |  |  |
| CC#Cc1nc2c3cc(C#N)n(CCN4CCN(c5ccc(OCCOC)cc5)CC4)c3nc(N)n2n1 | ≤ 20 | > 100 | a (greater than 1000) | a (greater than 1000) |
| COCCOc1ccc(N2CCN(CCn3c(C#N)cc4c3nc(N)n3nc(-c5ccccn5)nc43)CC2)cc1 | ≤ 20 | > 100 | b (greater than 100 but less than or equal to 1000) | a (greater than 1000) |
| Cc1c(C(=O)NC2CC2)n(CCN2CCN(c3cc(-c4ncco4)ccc3F)CC2)c2nc(N)n3nc(-c4ccccn4)nc3c12 | ≤ 20 | > 100 | a (greater than 1000) | a (greater than 1000) |
| CS(=O)(=O)NC(=O)COc1ccc(N2CCN(CCn3c(C#N)cc4c3nc(N)n3nc(-c5ccccn5)nc43)CC2)cc1 [2-(4-(4-(2-(5-amino-8-cyano-2-(pyridin-2-yl)-7H-pyrrolo[3,2-e][1,2,4]triazolo[1,5-c]pyrimidin-7-yl)ethyl)piperazin-1-yl)phenoxy)-N-(methylsulfonyl)acetamide] | ≤ 20 | > 100 | b (greater than 100 but less than or equal to 1000) |  |
| CC#Cc1nc2c3ncn(CCN4CCN(c5cc(-c6ncco6)ccc5F)CC4)c3nc(N)n2n1 | ≤ 20 | 20 to 100 | a (greater than 1000) |  |
| Cc1noc2cc(F)c(N3CCN(CCn4cnc5c4nc(N)n4nc(-c6ccccn6)nc54)CC3)cc12 [3-(2-(4-(6-fluoro-3-methylbenzo[d]isoxazol-5-yl)piperazin-1-yl)ethyl)-8-(pyridin-2-yl)-3H-[1,2,4]triazolo[5,1-i]purin-5-amine] | ≤ 20 | > 100 | b (greater than 100 but less than or equal to 1000) |  |
| CC#Cc1nc2c3cc(C#N)n(CCN4CCN(c5cc(-c6ncco6)ccc5F)CC4)c3nc(N)n2n1 | ≤ 20 | > 100 | a (greater than 1000) | a (greater than 1000) |
| CNC(=O)c1c(C)c2c(nc(N)n3nc(-c4ccccn4)nc23)n1CCN1CCN(c2cc(-c3ncco3)ccc2F)CC1 | ≤ 20 | ≤ 20 | a (greater than 1000) |  |
| Cc1c(C(N)=O)n(CCN2CCN(c3cc(-c4ncco4)ccc3F)CC2)c2nc(N)n3nc(-c4ccccn4)nc3c12 | ≤ 20 | ≤ 20 | a (greater than 1000) |  |
| Cc1c(C(=O)N2CCC2)n(CCN2CCN(c3cc(-c4ncco4)ccc3F)CC2)c2nc(N)n3nc(-c4ccccn4)nc3c12 | ≤ 20 | 20 to 100 | b (greater than 100 but less than or equal to 1000) |  |
| Cc1cn(CCN2CCN(c3cc(-c4ncco4)ccc3F)CC2)c2nc(N)n3nc(-c4ccccn4)nc3c12 | ≤ 20 | 20 to 100 | c (greater than 0 but less than or equal to 100) |  |
| COC(=O)c1c(C)c2c(nc(N)n3nc(-c4ccccn4)nc23)n1CCN1CCN(c2cc(-c3ncco3)ccc2F)CC1 | ≤ 20 | > 100 | a (greater than 1000) |  |
